Our source for the melting point values is US11000033B2, “Ketone or oxime compound, and herbicide” (NISSAN CHEMICAL CORPORATION, priority 2014, dated 2021).

Each structure is given as a SMILES string.

The term melting point denotes the temperature, or range, at which the solid turns liquid. For `CON=C(C)CC1CC(OC)=C(c2c(C)cc(O)cc2C)C1=O` (centres unmarked) [6-069], the melting point is 192 to 195 °C. On to `CON=C(C)CC1CC(OC)=C(c2c(C)cc(OC)cc2C)C1=O` (centres unmarked) [6-048], for which the melting point fell in the range of 82 to 85 °C.
